Data on four compounds can be found in ChEMBL document CHEMBL1129139, “Synthesis and activity of staurosporine analogs with a lactone functionality” (Bioorg Med Chem Lett, 1996).

Each structure is given as a SMILES string. Some results are limits rather than exact numbers.

The species named for assay [1] is Cavia porcellus. In words: Inhibitory effect of compound was measured for arterial contraction in guinea pig. The format is functional, organism-based.
The species named for assay [2] is Cavia porcellus. Put plainly: Inhibitory effect of compound was measured for platelet aggregation in guinea pig blood. It counts as functional, organism-based.

In the case of `CN[C@@H]1CC2O[C@@](C)([C@@H]1OC)n1c3ccccc3c3c(CO)c(CO)c4c5ccccc5n2c4c31`, the IC50 in the assay listed under Cavia porcellus [1] was determined as 30 µM; in the assay listed under Cavia porcellus [2], 6.8 µM.

Take `CO[C@@H]1[C@H](N(C)C)CC2O[C@]1(C)n1c3ccccc3c3c4c(c5c6ccccc6n2c5c31)C(=O)OC4`: the figures for the half-inhibitory concentration (IC50) in the assay filed under Cavia porcellus [1] and in the assay filed under Cavia porcellus [2] were over 10 µM and 5.4 µM, respectively.

Consider `CN[C@@H]1CC2O[C@@](C)([C@@H]1OC)n1c3ccccc3c3c4c(c5c6ccccc6n2c5c31)C(=O)OC4`, for which the 50% inhibitory concentration (IC50) in the assay filed under Cavia porcellus [1] was over 30 µM; in the assay filed under Cavia porcellus [2], 6.8 µM.

With `CN[C@@H]1CC2O[C@@](C)([C@@H]1OC)n1c3ccc(O)cc3c3c4c(c5c6cc(O)ccc6n2c5c31)C(=O)OC4`, the values for the IC50 in the assay listed under Cavia porcellus [1] and in the assay listed under Cavia porcellus [2] were 3 µM and 0.4 µM, respectively.
